Reference: patent US20250129430A1, “HIGH ATP-AFFINITY PROTEIN AS THERAPEUTIC TARGET FOR INTRACTABLE CANCER MOLECULAR SUBTYPES AND INHIBITOR THEREOF” (VeraVerse Co., Ltd., priority 2021, published 2025)

Columns and labels:
Type in all cases: cell-based, human
[1] = test system: SEM-type gastric cancer cell line; test: Cell viability drug screen, AUC summary over SEM-type lines
Procedure: An FDA-approved small-molecule pharmacological compound (#L1300) and an anticancer compound for research (#L2000) were purchased from Selecckchem and a 10 mM solution was prepared in DMSO. A total of 1,345 compounds were tested the cell viability of the seven EMT gastric cancer cell lines.
Cells cultured for cell-based drug assay were inoculated into a 96-well white optical plate (Corning) at 5×10^3 cells per well. After 24 hours after inoculation, a 2.5 MJT (primary screen) or a half-log 12-serial diluent (secondary screen) of the pharmacological compound contained in DMSO is added to the cells with a robot using a BioMek FXp liquid processor (Beckman) to add to the cells at 50 mM. The final drug concentration in the 5 ns range and the DMSO specification control (0.5%) were calculated. The cells were then further incubated at 37° C. in a 5% CO2 incubator for 72 hours prior to measuring cell viability using the extra-GLO assay kit (Promega). The luminescent properties were measured after 15 min incubation at room temperature using a plate stacker equipped with a plate stacker. The normalized viability for the DMSO-based control was measured to generate a cell line-specific 12-point dose-response curve for each pharmacological compound, and then the area under the curve (AUC) was calculated using a trapezoidal method.

AGS = test: Cell viability drug screen, 12-point dose-response AUC; settings: 72 hours; for area under the viability curve (AUC), normalized: AGS cells, 12-point dose-response
Summary of the method: (§1)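 Each cell line receives a twelve-point half-log titration of drug beginning 24 h after plating 5×10^3 cells per well. Following 72 h culture at 37 °C, luminescent signal is recorded and expressed versus vehicle. AUC is derived by the trapezoidal method.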

SNU719 = test: as above; settings: SNU719 cells, 72 hours; for area under the viability curve (AUC), normalized: 12-point dose-response
Summary of the method: as §1

SNU668 = test: as above; settings: 72 hours; for area under the viability curve (AUC), normalized: SNU668 cells, 12-point dose-response
Summary of the method: (§2)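 Luminescent viability readings, taken 15 min after reagent addition at room temperature, were normalized to the 0.5% DMSO control to build 12-point dose-response curves. Trapezoidal integration gave the AUC. Cells had been plated at 5×10^3 per well and then exposed to half-log dilutions for 72 h.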

MKN74 = test: as above; settings: MKN74 cells, 72 hours; for area under the viability curve (AUC), normalized: 12-point dose-response
Summary of the method: as §1

NCI_N87 = test: as above; settings: NCI_N87 cells, 72 hours; for area under the viability curve (AUC), normalized: 12-point dose-response
Summary of the method: as §2

SK4 = test: as above; settings: 72 hours; for area under the viability curve (AUC), normalized: SK4 cells, 12-point dose-response
Summary of the method: as §2

KATO3 = test: as above; settings: KATO3 cells, 72 hours; for area under the viability curve (AUC), normalized: 12-point dose-response
Summary of the method: as §2

YCC3 = test: as above; settings: YCC3 cells, 72 hours; for area under the viability curve (AUC), normalized: 12-point dose-response
Summary of the method: as §2

SNU484 = test: as above; settings: 72 hours; for area under the viability curve (AUC), normalized: SNU484 cells, 12-point dose-response
Summary of the method: as §2

NCC20 = test: as above; settings: NCC20 cells, 72 hours; for area under the viability curve (AUC), normalized: 12-point dose-response
Summary of the method: as §2

MKN45 = test: as above; settings: 72 hours; for area under the viability curve (AUC), normalized: MKN45 cells, 12-point dose-response
Summary of the method: as §1

SNU601 = test: as above; settings: SNU601 cells, 72 hours; for area under the viability curve (AUC), normalized: 12-point dose-response
Summary of the method: as §2

MKN28 = test: as above; settings: MKN28 cells, 72 hours; for area under the viability curve (AUC), normalized: 12-point dose-response
Summary of the method: as §2

SNU1967 = test: as above; settings: SNU1967 cells, 72 hours; for area under the viability curve (AUC), normalized: 12-point dose-response
Summary of the method: as §2

SNU16 = test: as above; settings: SNU16 cells, 72 hours; for area under the viability curve (AUC), normalized: 12-point dose-response
Summary of the method: as §2

YCC11 = test: as above; settings: 72 hours; for area under the viability curve (AUC), normalized: YCC11 cells, 12-point dose-response
Summary of the method: as §2

SNU638 = test: as above; settings: SNU638 cells, 72 hours; for area under the viability curve (AUC), normalized: 12-point dose-response
Summary of the method: as §2

YCC2 = test: as above; settings: YCC2 cells, 72 hours; for area under the viability curve (AUC), normalized: 12-point dose-response
Summary of the method: as §2

NCC59 = test: as above; settings: NCC59 cells, 72 hours; for area under the viability curve (AUC), normalized: 12-point dose-response
Summary of the method: as §2

NCC24 = test: as above; settings: NCC24 cells, 72 hours; for area under the viability curve (AUC), normalized: 12-point dose-response
Summary of the method: as §2

SNU620 = test: as above; settings: SNU620 cells, 72 hours; for area under the viability curve (AUC), normalized: 12-point dose-response
Summary of the method: as §2

NCC19 = test: as above; settings: NCC19 cells, 72 hours; for area under the viability curve (AUC), normalized: 12-point dose-response
Summary of the method: as §2

SNU1750 = test: as above; settings: 72 hours; for area under the viability curve (AUC), normalized: SNU1750 cells, 12-point dose-response
Summary of the method: as §2

Hs746T = test: as above; settings: 72 hours; for area under the viability curve (AUC), normalized: Hs746T cells, 12-point dose-response
Summary of the method: as §2

SNU1 = test: as above; settings: SNU1 cells, 72 hours; for area under the viability curve (AUC), normalized: 12-point dose-response
Summary of the method: as §2

SNU216 = test: as above; settings: 72 hours; for area under the viability curve (AUC), normalized: SNU216 cells, 12-point dose-response
Summary of the method: as §1

OCUM1 = test: as above; settings: OCUM1 cells, 72 hours; for area under the viability curve (AUC), normalized: 12-point dose-response
Summary of the method: as §2

MKN1 = test: as above; settings: MKN1 cells, 72 hours; for area under the viability curve (AUC), normalized: 12-point dose-response
Summary of the method: as §2

[2] = test system: non-SEM-type gastric cancer cell line; test: Cell viability drug screen, AUC summary over non-SEM-type lines; settings: in the non-SEM-type gastric cancer cell line
FU97 = test: Cell viability drug screen, 12-point dose-response AUC; design: Average Area Under the Viability Curve (AUC), AUC norm value: scale not given here; settings: FU97 cells, 72 hours; for area under the viability curve (AUC), normalized: 12-point dose-response
Summary of the method: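 Trapezoidal AUC of a 12-point, DMSO-normalized dose-response curve. Luminescent viability was measured after 72 h of exposure at 37° C to half-log serial dilutions (0.5% DMSO control), dosed 24 h after plating FU97 cells at 5×10^3 per well.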

`Cn1c(=O)n(-c2ccc(C(C)(C)C#N)cc2)c2c3cc(-c4cnc5ccccc5c4)ccc3ncc21` [BEZ235 (NVP-BEZ235), BEZ235] was tested, and the “normalized viability AUC” value [1] was “negative”, the “Average Area Under the Viability Curve (AUC), AUC norm value” (from here on “Average Area Under the Viability Curve”) (AGS; AGS cells (non-SEM subtype)) was −1.768 and the “Average Area Under the Viability Curve” value (SNU719) was 5.119. The “Average Area Under the Viability Curve” value (SNU668; SNU668 cells (SEM subtype)) was 1.258, the “Average Area Under the Viability Curve” value (MKN74) was 0.02041 and the “Average Area Under the Viability Curve” value (NCI_N87) was 0.7505. The “Average Area Under the Viability Curve” value (SK4; SK4 cells (SEM subtype)) was −3.142, the “Average Area Under the Viability Curve” value (KATO3) was 2.717 and the “Average Area Under the Viability Curve” value (YCC3) was 0.9008. The “Average Area Under the Viability Curve” value (SNU484; SNU484 cells (SEM subtype)) was 0, the “Average Area Under the Viability Curve” value (NCC20) was −1.542 and the “Average Area Under the Viability Curve” value (MKN45; MKN45 cells (non-SEM subtype)) was 1.887. The “Average Area Under the Viability Curve” value (SNU601) was 2.66, the “Average Area Under the Viability Curve” value (MKN28) was 2.007 and the “Average Area Under the Viability Curve” value (SNU1967) was −0.17. The “Average Area Under the Viability Curve” value (SNU16) was −0.9859, the “Average Area Under the Viability Curve” value (YCC11; YCC11 cells (SEM subtype)) was −2.698 and the “Average Area Under the Viability Curve” value (SNU638) was 0.8979. The “Average Area Under the Viability Curve” value (YCC2) was 0.6403, the “Average Area Under the Viability Curve” value (NCC59) was 2.997 and the “Average Area Under the Viability Curve” value (NCC24) was 0.08486. For the same molecule, the “Average Area Under the Viability Curve” value (SNU620) was −0.6893, the “Average Area Under the Viability Curve” value (NCC19) was 0.9022 and the “Average Area Under the Viability Curve” value (SNU1750; SNU1750 cells (SEM subtype)) was −1.129. The “Average Area Under the Viability Curve” value (Hs746T; Hs746T cells (SEM subtype)) was −0.9926, the “Average Area Under the Viability Curve” value (SNU1) was −1.128 and the “Average Area Under the Viability Curve” value (SNU216; SNU216 cells (non-SEM subtype)) was −0.6351. The “Average Area Under the Viability Curve” value (OCUM1) was −0.3719, the “Average Area Under the Viability Curve” value (MKN1) was −0.845 and the AUC value [2] was “high”. The “Average Area Under the Viability Curve” value (FU97) was −2.382.

With `Cc1cnc(NC(=O)Nc2cc(Br)c(C)cc2OC[C@@H]2CNCCO2)cn1` [LY2603618] the “normalized viability AUC” value [1] was “negative”, the “area under the viability curve (AUC), normalized” value (“area … normalized” for short) (AGS) was −0.3593 and the “area … normalized” value (SNU719) was 2.404. The “area … normalized” value (SNU668) was 0.1713, the “area … normalized” value (MKN74) was −0.9084 and the “area … normalized” value (NCI_N87) was 0.8771. The “area … normalized” value (SK4) was −1.698, the “area … normalized” value (KATO3) was 1.256 and the “area … normalized” value (YCC3) was 0.2305. The “area … normalized” value (SNU484) was 0.3141, the “area … normalized” value (NCC20) was 0.01673 and the “area … normalized” value (MKN45) was −0.9472. For the same molecule, the “area … normalized” value (SNU601) was 0.2367, the “area … normalized” value (MKN28) was −0.1902 and the “area … normalized” value (SNU1967) was −0.9616. The “area … normalized” value (SNU16) was 1.467, the “area … normalized” value (YCC11) was −2.027 and the “area … normalized” value (SNU638) was −0.05048. For the same molecule, the “area … normalized” value (YCC2) was 0.04045, the “area … normalized” value (NCC59) was 0.9326 and the “area … normalized” value (NCC24) was −1.445. For the same molecule, the “area … normalized” value (SNU620) was 0, the “area … normalized” value (NCC19) was 1.2209 and the “area … normalized” value (SNU1750) was −0.4819. For the same molecule, the “area … normalized” value (Hs746T) was −0.107, the “area … normalized” value (SNU1) was −0.3399 and the “area … normalized” value (SNU216) was 0.2462. The “area … normalized” value (OCUM1) was −0.6831, the “area … normalized” value (MKN1) was −1.023 and the AUC value [2] was “high”. For the same molecule, the “area … normalized” value (FU97) was 0.7111.

In the case of `COCCn1c2c([n+](Cc3cnccn3)c1C)C(=O)c1ccccc1C2=O` [YM155], the “normalized viability AUC” value [1] is reported as “negative”, the “area … normalized” value (AGS) is reported as −1.512 and the “area … normalized” value (SNU719) is reported as 3.789. For the same molecule, the “area … normalized” value (SNU668) was −0.2961, the “area … normalized” value (MKN74) was −1.305 and the “area … normalized” value (NCI_N87) was 0.4168. The “area … normalized” value (SK4) was −1.314, the “area … normalized” value (KATO3) was −0.3081 and the “area … normalized” value (YCC3) was 1.325. The “area … normalized” value (SNU484) was −2.56, the “area … normalized” value (NCC20) was 0 and the “area … normalized” value (MKN45) was 0.6792. The “area … normalized” value (SNU601) was 1.661, the “area … normalized” value (MKN28) was −1.021 and the “area … normalized” value (SNU1967) was −0.2044. For the same molecule, the “area … normalized” value (SNU16) was 2.497, the “area … normalized” value (YCC11) was −1.419 and the “area … normalized” value (SNU638) was 0.5099. For the same molecule, the “area … normalized” value (YCC2) was −0.4228, the “area … normalized” value (NCC59) was 0.1386 and the “area … normalized” value (NCC24) was −0.6903. For the same molecule, the “area … normalized” value (SNU620) was 1.29, the “area … normalized” value (NCC19) was 3.608 and the “area … normalized” value (SNU1750) was −2.624. For the same molecule, the “area … normalized” value (Hs746T) was −1.376, the “area … normalized” value (SNU1) was 1.212 and the “area … normalized” value (SNU216) was 0.09958. For the same molecule, the “area … normalized” value (OCUM1) was 1.685, the “area … normalized” value (MKN1) was −2.0115 and the AUC value [2] was “high”. For the same molecule, the “area … normalized” value (FU97) was 1.301.
